This is an account of results in patent US8314077B2 (priority 1996, dated 2012).

Where two headings read alike, the source gives them in different places.

The subject of one data set is CNSSF 268. Put plainly: cells. It counts as cell-based. Here is the method: (§1) Conjugates 1 and 2 were sent to the United States National Cancer Institute (NCI) for screening in the NCI's anticancer screening program. The conjugates were provided in ethanol (approximately 40 mg analog/2 ml ethanol). […] Instructions were provided to store at 4° C. and to open the vials only when ready for immediate experimental use. Instructions also were provided to use the ethanol solutions containing the conjugates directly or to dissolve the analogs further in DMSO (dimethylsulfoxide) at appropriate concentrations, with vortexing if necessary for adequate dispersal.
(§2) The activities of conjugates 1 and 2 were tested against 57 cancer cell lines. […] To understand the data, reference is made to the guides provided by the NCI, excerpted as follows:
(§3) The Calculated Measurement of Effect: Percentage Growth (PG)
(§4) The measured effect of the compound on a cell line is currently calculated according to one or the other of the following two expressions:
(§5) If (Mean ODtext−Mean ODtzero)≧0, then PG=100×(Mean ODtest−Mean ODtzero)/(Mean ODctrl−Mean Odtzero)
(§6) If (Mean ODtest−Mean ODtzero)<0, then PG=100×(Mean ODtest−Mean Odtzero)/Mean Odtzero
(§7) Where: • Mean ODtzero=The average of optical density measurements of SRB-derived color just before exposure of cells to the test compound. • Mean ODtest=The average of optical density measurements of SRB-derived color after 48 hours exposure of cells to the test compound. • Mean ODctrl=The average of optical density measurements of SRB-derived color after 48 hours with no exposure of cells to the test compound.
(§8) Experimental data was collected against each cell line. . . . . Each concentration is expressed as the log10 (molar or μg/ml) . . . . The response parameters GI50, TGI, and LC50 are interpolated values representing the concentrations at which the PG is +50, 0, and −50, respectively. Sometimes these response parameters cannot be obtained by interpolation. If, for instance, all of the PGs in a given row exceed +50, then none of the three parameters can be obtained by interpolation. In such a case, the value given for each response parameter is the highest concentration tested. This practice is extended similarly to the other possible situations where a response parameter cannot be obtained by interpolation.
(§9) The dose-response curve page of the data package is created by plotting the PGs against the log10 of the corresponding concentration for every cell line. The cell line curves are grouped by subpanel. Horizontal lines are provided at the PG values of +50, 0, and −50. The concentrations corresponding to points where the curves cross these lines are the GI50, TGI and LC50, respectively.

The subject of a further data set is CNS SF-539. Put plainly: cells. As to conditions: for TGI: concentration at which PG is 0, CNS SF-539. It counts as cell-based. Here is the method:
as §1, §2, §3, §4, §5, §6, §7, §8, §9

Data set [1] deals with leukemia cancer cell lines. It counts as cell-based. The note with it: six lines for the conjugates, four lines for Taxol; FIGS. 1, 10 and 19. Here is the method: as §1, §2, §3, §4, §5, §6, §7, §8, §9
Data set [2] deals with MDA-N and MDA-MB-435 breast cancer cell lines. It counts as cell-based. The note with it: all concentrations tested. Here is the method: as §1, §2, §3, §4, §5, §6, §7, §8, §9
For data set [3], the system named is non-small cell lung cancer lines H522 and H460. It counts as cell-based. Here is the method: as §1, §2, §3, §4, §5, §6, §7, §8, §9
For a further data set, the system named is CNSU251. It counts as cell-based. Here is the method:
as §1, §2, §3, §4, §5, §6, §7, §8, §9

The test system of another data set is 57 cancer cell lines. The format is cell-based. The note with it: for potency relative to Taxol: many cell lines tested; for pattern of activity versus Taxol (NCI statistical analysis): statistical analysis designed by the NCI. Here is the method: Conjugates 1 and 2 were sent to the United States National Cancer Institute (NCI) for screening in the NCI's anticancer screening program. The conjugates were provided in ethanol (approximately 40 mg analog/2 ml ethanol). The conjugates were sealed in vials under argon to avoid exposure of the conjugates to oxygen because the conjugates were believed to be sensitive to oxygen. Instructions were provided to store at 4° C. and to open the vials only when ready for immediate experimental use. Instructions also were provided to use the ethanol solutions containing the conjugates directly or to dissolve the analogs further in DMSO (dimethylsulfoxide) at appropriate concentrations, with vortexing if necessary for adequate dispersal.
as §2, §3, §4, §5, §6, §7, §8, §9

The conditions of data set [4]: in vivo; cited from earlier work.

In the data set on CNSSF 268 (48 h), `CC/C=C\C/C=C\C/C=C\C/C=C\C/C=C\C/C=C\CCC(=O)O[C@H]1C[C@H]2OC[C@@]2(OC(C)=O)[C@H]2[C@H](OC(=O)c3ccccc3)[C@]3(O)CC(OC(=O)C(O)[C@@H](NC(=O)c4ccccc4)c4ccccc4)C(C)=C([C@@H](OC(C)=O)C(=O)[C@]12C)C3(C)C` (stereo partly shown) [conjugate 2] gave a GI50 of 5.25 µM. The molecule also gave a GI50 in the data set with CNS SF-539 (CNSSF-539, 48 h) of 2.75 µM. The TGI in the data set on CNS SF-539 (48 hours exposure) is −5.53 log10 (molar or μg/ml). Further, the “effectiveness against leukemia cell lines” value in data set [1] is “not very effective”. In data set [2], the “relative activity toward MDA-N versus MDA-MB-435” value is listed as “more effective against MDA-N than MDA-MB-435”. In addition, in data set [3], the “relative effectiveness against H460 versus H522 at TGI” value was “slightly more effective against H460 than H522”. For the same molecule, the “effectiveness at TGI against CNSU251 relative to other CNS cell lines” value in the data set on CNSU251 is listed as “very effective”. Also, in the data set on 57 cancer cell lines, the “potency relative to Taxol” value was “one thousand to ten thousand times less potent than Taxol” and the “pattern of activity versus Taxol (NCI statistical analysis)” value is “statistically different”.
Consider `CC(=O)O[C@H]1C(=O)[C@@]2(C)[C@H]([C@H](OC(=O)c3ccccc3)[C@]3(O)C[C@H](OC(=O)[C@H](O)[C@@H](NC(=O)c4ccccc4)c4ccccc4)C(C)=C1C3(C)C)[C@]1(OC(C)=O)CO[C@@H]1C[C@@H]2O` [Taxol, paclitaxel, reference compound], for which the GI50 result in the data set on CNSSF 268 (concentration at which PG is +50, 48 hours exposure, CNSSF 268) is reported as “less than −10.0 log10 (molar or μg/ml)”; with CNS SF-539 (concentration at which PG is +50, 48 hours exposure, CNS SF 539) it was −7.52 log10 (molar or μg/ml). The TGI in the data set with CNS SF-539 (48 hours exposure) was −6.95 log10 (molar or μg/ml). Further, in data set [1], the “effectiveness against leukemia cell lines” value was “somewhat effective”. For the same molecule, the “difference in effectiveness, H522 versus H460, at TGI” value in data set [3] is reported as “about 3 logs”. Besides, the “average GI50 across all cell lines tested” value with 57 cancer cell lines (average over cell lines, −10 used where Taxol was active at −10.0) is given as “at least −9.19 log10 (molar or μg/ml)”. In data set [4], the “entry into the brain” value was “does not get into the brain”.
Consider `CC/C=C\C/C=C\C/C=C\C/C=C\C/C=C\C/C=C\CCC(=O)OC(C(=O)OC1C[C@@]2(O)[C@@H](OC(=O)c3ccccc3)[C@@H]3[C@]4(OC(C)=O)CO[C@@H]4C[C@H](O)[C@@]3(C)C(=O)[C@H](OC(C)=O)C(=C1C)C2(C)C)[C@@H](NC(=O)c1ccccc1)c1ccccc1` (stereo partly shown) [conjugate 1], for which, in the data set with CNSSF 268 (concentration at which PG is +50, 48 hours exposure, CNSSF 268, read-out: GI50 (converted)), the GI50 was 4.37 µM. In the data set with CNS SF-539 (CNSSF-539, concentration at which PG is +50, 48 hours exposure, CNS SF 539, read-out: GI50 (converted)), the GI50 was 0.603 µM. Also, the TGI in the data set with CNS SF-539 (48 hours exposure) is reported as −5.13 log10 (molar or μg/ml). For the same molecule, the “effectiveness against leukemia cell lines” value in data set [1] is listed as “not very effective”. Moreover, the “relative activity toward MDA-N versus MDA-MB-435” value in data set [2] is “more effective against MDA-N than MDA-MB-435”. Moreover, in data set [3], the “relative effectiveness against H460 versus H522 at TGI” value was “slightly more effective against H460 than H522”. The “effectiveness at TGI against CNSU251 relative to other CNS cell lines” value in the data set with CNSU251 is reported as “most effective”. Also, in the data set on 57 cancer cell lines, the “potency relative to Taxol” value is “one thousand to ten thousand times less potent than Taxol” and the “pattern of activity versus Taxol (NCI statistical analysis)” value is listed as “statistically different”.
